Assay results reported in patent US20120283174A1, “ANTIBIOFILM GLYCOPEPTIDES” (ORAL HEALTH AUSTRALIA PTY. LTD., priority 2009, published 2012).
Marks after values point to notes of the source that are not given here.

Legend:
[1] = tested on: S. mutans biofilm; assay: Early stage (6 h) S. mutans flow cell biofilms, 10 min treatment, 16 h recovery, CSLM; assay type: cell-based, Streptococcus mutans Ingbritt; set-up: key to Surface to biovolume ratio / Roughness coefficient (dimensionless, range: zero-infinity) / Biovolume / Average thickness: —: No significant amount of biofilms detected after 16 h recovery; details: 6 h biofilm
Description: (§1) Flowcell culture and CSLM analysis of monospecific biofilm The biofilm culture of S. mutans in flow cells was similar to that described by Wen et al. (2006) with several modifications. A 3-channel flow cell system (Stovall Life Science, Greensboro, N.C., USA) was modified with stopcocks for inoculation, testing and staining of the bacterial biofilms. All parts were assembled and 0.5% sodium hypochlorite was pumped in and left overnight. Sterile water (200 mL) was then used to flush the system prior to the addition of growth medium. The system was inoculated with 1 mL of an exponentially growing S. mutans Ingbritt culture diluted to a cell density of 1×10^7 cells/mL. The system was incubated for 1 h prior to constant flow (0.2 mL/min) of 25% ASM (ASM; 2.5 g/L type II porcine gastric mucin, 2.0 g/L bacteriological peptone, 2.0 g/L tryptone, 1.0 g/L yeast extract, 0.35 g/L NaCl, 0.2 g/L KCl, 0.2 g/L CaCl2 and 1 mg/L haemin, pH 7.0) supplemented with 2.5 mM DTT and 0.5 g/L sucrose.. After 16 h, 1 mL of purified glycosylated x-casein(106-169) (KCG); KCGP(f106-169); KCGPZ(f106-169) (KCGPZ(f106-169); 10 mg/mL KCGP(f106-169) and 20 mM ZnCl2); 20 mM ZnCl2; 0.1% chlorhexidine digluconate or sterile water was injected into each channel of the system and incubated for 10 min, the flow of 25% ASM was then resumed for 10 min prior to staining. For determination of the effects of treatments on early stage biofilms the system was incubated for 6 h after inoculation, treated with 1 mL of test solutions for 10 min and the flow of 25% ASM resumed for another 16 h to observe recovery of the biofilm. BacLight LIVE/DEAD stain (Molecular Probes) was then used to stain the biofilm in situ.
(§2) Confocal laser scanning microscopy (CLSM) of the bacterial biofilms was carried out on a Meta 510 Confocal Microscope with an inverted stage (Zeiss). Horizontal (xy) optodigital sections, each 2 μm thick over the entire thickness of the biofilm (z) were imaged using a 63× objective at 512×512 pixel (0.28 μm per pixel), with each frame at 143.86 μm (x)×143.86 μm (y). To determine reproducibility across the biofilm 5 images at random positions were obtained at wavelengths of 488 nm and 568 nm for each channel and 3 biological replicates were used. All images obtained were analysed using Comstat software (Heydorn et al., 2000).
(§3) Data treatment and statistical analyses. The biometric data were analyzed using a two-factor analysis of variance (ANOVA) model with treatment included as a fixed factor and experiment as a random blocking factor to investigate the effect of KCGP(f106-169), KCG, KCGPZ(f106-169), Zinc and chlorhexidine on established biofilms. If treatment differences were significant, post hoc comparisons of treatment differences were performed using the Tukey posttest. Model fits were checked by residual plots, normality was investigated using normal probability plots and the Kolmogorov-Smirnov test and homogeneity of error variances was tested using Levene's test. When the error variances were heterogeneous a natural logarithm transformation of the data was used to stabilize the treatment group variances. Treatments were then compared using ANOVA on the transformed data. The biometric data obtained from the experiments investigating the effect of KCGPZ(f106-169) on 6 h S. mutans biofilms was analysed using a Paired Samples T-Test. All analyses were conducted using SPSS statistical software (version 17.0, SPSS Inc., Chicago, Ill.).

[2] = tested on: S. mutans biofilms; assay: Flow cell culture and CSLM analysis of 16 h S. mutans biofilms, single 10 min treatment; assay type: cell-based, Streptococcus mutans Ingbritt
Description: as §1, §2, §3

[3] = 0.12% mouthwash, over a 12 week period; cited from earlier work
[4] = tested on: S. sanguis cells grown as a biofilm; details: 0.2% w/v, 5 minute exposure, biofilm in a CDFF; cited from earlier work
[5] = tested on: six species oral biofilm; details: 0.2% w/v, 1 and 5 minutes of exposure; cited from earlier work
[6] = 0.1% chlorhexidine digluconate, 10 min treatment
[7] = 0.1% (Table 1), 16 h biofilm, single 10 min treatment
[8] = 0.1%, 16 h biofilm, single 10 min treatment
[9] = 0.1%, 16 h biofilm, single 10 min treatment, listed as Chlorhexidine digluconate

In the case of `[H]/N=C(\N/C(=N/[H])NCCCCCCNC(=N)NC(=N)Nc1ccc(Cl)cc1)Nc1ccc(Cl)cc1` [Chlorhexidine, chlorhexidine digluconate], the Average thickness [1, 6] is reported as “—^b”, the Biovolume [1, 6] is reported as “—^b” and the “Roughness coefficient (dimensionless, range: zero-infinity)” value (“Roughness coefficient” below) [1, 6] is reported as “—^b”. For the same compound, the “Surface to biovolume ratio” value [1, 6] was “—^b”, the “effect on early S. mutans biofilms in words” value ([1]; single 10 min treatment) was “substantially reducing the biofilms, which had not recovered after 16 h” and the “reduction of average thickness” value [2, 7] was 59%. The “reduction of total biomass” value [2, 7] was 53%, the Average thickness [2, 8] was 3.02 ± 0.66^a μm and the Biovolume [2, 8] was 1.82 ± 0.60^a μm^3/μm^2. For the same compound, the “Roughness coefficient” value [2, 8] was 1.51 ± 0.12^a, the “Surface to biovolume ratio” value [2, 8] was 2.36 ± 1.24^ab μm^2/μm^3 and the Average thickness [2, 9] was “Significant reduction”. For the same compound, the Biovolume [2, 9] was “Significant reduction”, the “Surface to biovolume ratio” value ([2]; 0.1%, 16 h biofilm, single 10 min treatment, listed as chlorhexidine) was “nonsignificant differences” and the “dead S. mutans cells by propidium iodide staining (BacLight Live/Dead, FIG. 5)” value ([2]; 16 h biofilm after treatment, qualitative) was “qualitatively higher number of dead S. mutans cells compared with KCG or KCGPZ(f106-169)”. The “disruption / inhibition of S. mutans biofilms, comparison between treatments in words” value ([2]; 16 h biofilm, single 10 min treatment, concentrations as in Table 1) was “not significantly different to those produced by ZnCl2, 2.4 mg/mL purified KCG or 10 mg/mL KCGP(f106-169)”, the “reduction of gingival inflammation” value [3] was 25% and the “reduction of plaque accumulation” value [3] was 28%. For the same compound, the “reduction in viable S. sanguis cells” value [4] was roughly 2 log10 and the “effect on six species oral biofilm” value [5] was “no significant difference”.

With `[Cl-].[Cl-].[Zn+2]` [ZnCl2] the “Roughness coefficient” value ([2]; 20 mM, 16 h biofilm, single 10 min treatment) was 1.54 ± 0.07^ab.
